Data on 5 compounds can be found in US6159959A, “Combined estrogen and antiestrogen therapy” (American Home Products Corporation, priority 1999, dated 2000).

Assay [1] deals with uterus. The note with it: in vivo; cited from earlier work.
The test system of assay [2] is bone. The note with it: in humans; cited from earlier work.
Assay [3] addresses T1, human estrogen receptor (Homo sapiens, UniProt P03372).
T1 construct: expressed in transfected cells; host or cells: CHO (Chinese Hamster Ovary) cells, stably transfected
The assay is described as follows: 2× VIT ERE Infection Assay (infection luciferase activity). The note with it: 24 h, read-out: Infection Luciferase Activity, 1 uM. Format: cell-based. Here is the method: 48 h prior to treatment the growth medium was replaced with DMEM lacking phenol red+10% dextran coated charcoal stripped FBS (treatment medium).
Reporter DNA (Promega plasmid pGL2 containing two tandem copies of the vitellogenin ERE in front of the minimal thymidine kinase promoter driving the luciferase gene) was combined with the B-galactosidase expression plasmid pCH110 (Pharmacia) and carrier DNA (pTZ18U) in the following ratio:
20 uL of this mixture was added to each well of cells and remained on the cells for 16 h. […] Each treatment condition was performed on 8 wells (n=8) which were incubated for 24 h prior to the luciferase assay.
After 24 h exposure to compounds, the media was removed and each well washed 2× with 125 uL of PBS lacking Mg^++ and Ca^++. After removing the PBS, 25 uL of Promega lysis buffer was added to each well and allowed to stand at room temperature for 15 min, followed by 15 min at -80° C. and 15 min at 37° C.
The luciferan substrate (Promega) was added in 100 uL aliquots to each well automatically by the luminometer and the light produced (relative light units) was read 10 seconds after addition.
To the remaining 5 uL of lysate 45 uL of PBS was added. Then 50 uL of Promega B-galactosidase 2× assay buffer was added, mixed well and incubated at 37° C. for 1 hour. A plate containing a standard curve (0.1 to 1.5 milliunits in triplicate) was set up for each experimental run. The plates were analyzed on a Molecular Devices spectrophotometric plate reader at 410 nm. The optical densities for the unknown were converted to milliunits of activity by mathematical extrapolation from the standard curve.
The luciferase data was generated as relative light units (RLUs) accumulated during a 10 second measurement and automatically transferred to a JMP (SAS Inc) file where background RLUs were subtracted. The B-galactosidase values were automatically imported into the file and these values were divided into the RLUs to normalize the data. The mean and standard deviations were determined from a n=8 for each treatment.

The target in assay [4] is T2, estrogen receptor (Homo sapiens, UniProt P03372).
T2 construct: expressed in transfected cells; host or cells: CHO cells overexpressing the receptor; cytosol (100,000 g supernatant)
T2 sequence (P03372 1-595): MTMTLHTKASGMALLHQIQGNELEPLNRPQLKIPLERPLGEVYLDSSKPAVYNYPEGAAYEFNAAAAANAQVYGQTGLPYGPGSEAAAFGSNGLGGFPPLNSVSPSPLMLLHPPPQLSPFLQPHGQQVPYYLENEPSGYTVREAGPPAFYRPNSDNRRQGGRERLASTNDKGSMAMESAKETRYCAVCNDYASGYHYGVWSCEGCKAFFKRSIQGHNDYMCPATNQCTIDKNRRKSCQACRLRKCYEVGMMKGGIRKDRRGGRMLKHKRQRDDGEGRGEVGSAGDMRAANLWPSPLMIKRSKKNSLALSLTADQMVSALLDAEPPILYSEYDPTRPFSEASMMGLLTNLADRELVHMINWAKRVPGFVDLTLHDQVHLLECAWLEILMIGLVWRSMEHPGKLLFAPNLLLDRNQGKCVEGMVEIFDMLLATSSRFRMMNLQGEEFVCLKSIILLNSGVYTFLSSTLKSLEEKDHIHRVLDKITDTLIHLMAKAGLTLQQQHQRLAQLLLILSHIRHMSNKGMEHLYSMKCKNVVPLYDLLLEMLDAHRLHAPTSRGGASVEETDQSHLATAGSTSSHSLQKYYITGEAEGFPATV
Briefly: In vitro Estrogen Receptor Binding Assay (competition with [3H]-17β-estradiol). The note with it: compared with indenoindole #6. Here is the method:
CHO cells overexpressing the estrogen receptor were grown in 150 mm^2 dishes in DMEM+10% dextran coated charcoal, stripped fetal bovine serum. The plates were washed twice with PBS and once with 10 mM Tris-HCl, pH 7.4, 1 mM EDTA. Cells were harvested by scraping the surface and then the cell suspension was placed on ice. Cells were disrupted with a hand-held motorized tissue grinder using two, 10-second bursts. The crude preparation was centrifuged at 12,000 g for 20 minutes followed by a 60 minute spin at 100,000 g to produce a ribosome free cytosol. The cytosol was then frozen and stored at -80° C. […]
The competition assay was performed in a 96-well plate (polystyrene*) which binds <2.0% of the total input [^3 H]-17β-estradiol and each data point was gathered in triplicate. […] Samples were counted to 2% or 10 minutes, whichever occurs first. […] 17βestradiol, wells containing radioactivity and cytosol, but not processed with charcoal were included to quantitate amounts of available isotope. Also, wells containing radioactivity but no cytosol were processed with charcoal to estimate unremovable DPM of [^3 H] […]
Counts per minute (CPM) of radioactivity were automatically converted to disintegrated per minute (DPM) by the Beckman LS 7500 Scintillation Counter using a set of quenched standards to generate a H# for each sample. […]

Assay [5] has as its system ovariectomized rat. The note with it: cited from earlier work.

`CC/C(=C(\c1ccccc1)c1ccc(OCCN(C)C)cc1)c1ccccc1` [Tamoxifen]: the “agonism in the uterus” value in assay [1] is reported as “partial agonist in the uterus”. Further, the “effect on the bone” value in assay [2] was “estrogen agonist-like effect on the bone”.

Regarding `COc1ccc2c(c1)CCc1c-2n(Cc2ccc(OCCN3CCCCC3)cc2)c2ccc(O)cc12` [Cmpd. 21, 3-Methoxy-11-[4-(2-piperidin-1-yl-ethoxy)-benzyl]-5,11-dihydro-6H-benzo[a]carbazol-8-ol], in assay [3], the activation at 1 µM was -7%. The “bind to the ER receptor (comparison in words)” value in assay [4] is reported as “bind better to the ER receptor than the indenoindole #6”.

`COc1ccc2c(c1)Cc1c-2n(Cc2ccc(OCCN3CCCCC3)cc2)c2ccc(O)cc12` [Cmpd. 6, 2-Methoxy-5-[4-(2-piperidin-1-yl-ethoxy)-benzyl]-5,10-dihydro-indeno[1,2-b]indol-8ol]: the activation at 1 µM in assay [3] is -2%.

With `O=C(c1ccc(OCCN2CCCCC2)cc1)c1c(-c2ccc(O)cc2)sc2cc(O)ccc12` [Raloxifene], the “ability to spare bone” value in assay [5] is “maintaining the ability to spare bone”. The “stimulation of uterine growth” value in assay [5] (compared with Tamoxifen) was “stimulate uterine growth in the ovariectomized rat to a lesser extent than Tamoxifen”.

With `COc1ccc2c(c1)CCc1c-2n(Cc2ccc(OCCN3CCCCCC3)cc2)c2ccc(O)cc12` [Cmpd. 22, 11-[4-(2-Azepan-1-yl-ethoxy)-benzyl]-3-methoxy-5,11-dihydro-6H-benzo[a]carbazol-8-ol], in assay [3], the activation at 1 µM is 1%. Further, the “bind to the ER receptor (comparison in words)” value in assay [4] is given as “bind better to the ER receptor than the indenoindole #6”.
